Like-named read-outs stand apart in the source and are kept apart here.
What was measured:
[1] = target: T1, human somatostatin receptor subtype SSTR1 (Homo sapiens, UniProt P30872); assay: Competition binding with 125I-LTT-sst-28, human somatostatin receptor subtype SSTR1
T1 construct: expressed in transfected cells; host or cells: CHO cells (membranes)
Method: (§1) The affinity of the compounds of the invention for the five human somatostatin receptor subtypes (SSTR1, SSTR2, SSTR3, SSTR4, and SSTR5) was determined in competition binding assays with (^125I-Tyr)-[Leu^8,DTrp^22]-somatostatin-28 (^125I-LTT-sst-28). The biological material for these experiments consisted of membranes from Chinese hamster ovary (CHO) cells stably transfected with one of the five human somatostatin receptor subtypes. Membranes (3-20 μg of total protein per sample) and trace amount of ^125I-LTT-sst-28 were incubated in 10 mM Hepes, 1 mM EDTA, 5 mM MgCl2, 5 mg/ml of BSA and 30 μg/ml bacitracin, pH 7.6 with six concentrations of the compounds. Each concentration was run in duplicate. Nonspecific binding was defined by 1 μM somatostatin-14 (sst-14) and corresponded to 5-25% of total binding. After 60 min at room temperature, incubations were terminated by rapid vacuum filtration through GF/B glass fiber filter mats (presoaked at 4° C. in 200 ml of 10 mM Hepes, 1 mM EDTA, 5 mM MgCl2, pH 7.6) and three 5 ml washes with ice-cold wash buffer (20 mM TRIS, 1 mM EDTA, 5 mM MgCl2, pH 7.4). The filters were then dried, impregnated with scintillate and their radioactivity was measured by scintillation counting. The analysis of the experiments was carried out by nonlinear least square curve fitting. Affinity constants (Ki) were calculated from the IC50 values according to the Cheng-Prusoff's equation (Cheng and Prusoff, 1973). Experiments were repeated a minimum of three times.

[2] = target: T2, human somatostatin receptor subtype SSTR4 (Homo sapiens, UniProt P31391); assay: Competition binding with 125I-LTT-sst-28, human somatostatin receptor subtype SSTR4
T2 construct: expressed in transfected cells; host or cells: CHO cells (membranes)
Method: as §1

[3] = target: T3, human somatostatin receptor subtype SSTR2 (Homo sapiens, UniProt P30874); assay: Competition binding with 125I-LTT-sst-28, human somatostatin receptor subtype SSTR2; conditions: membranes from CHO cells stably transfected with human SSTR2, Cheng-Prusoff
T3 construct: expressed in transfected cells; host or cells: CHO cells (membranes)
Method: as §1, with “The analysis of the experiments was carried out by nonlinear least square curve fitting.” left out, “Experiments were repeated a minimum of three times.” left out

[4] = target: T4, human somatostatin receptor subtype SSTR5 (Homo sapiens, UniProt P35346); assay: Competition binding with 125I-LTT-sst-28, human somatostatin receptor subtype SSTR5; conditions: membranes from CHO cells stably transfected with human SSTR5, Cheng-Prusoff
T4 construct: expressed in transfected cells; host or cells: CHO cells (membranes)
Method: as §1, with “The analysis of the experiments was carried out by nonlinear least square curve fitting.” left out, “Experiments were repeated a minimum of three times.” left out

[5] = target: T5, human somatostatin receptor subtype SSTR3 (Homo sapiens, UniProt P32745); assay: Competition binding with 125I-LTT-sst-28, human somatostatin receptor subtype SSTR3; conditions: membranes from CHO cells stably transfected with human SSTR3, Cheng-Prusoff
T5 construct: expressed in transfected cells; host or cells: CHO cells (membranes)
Method: as §1, with “The analysis of the experiments was carried out by nonlinear least square curve fitting.” left out, “Experiments were repeated a minimum of three times.” left out

[6] = same protocol, less than 300 nM, read-out: Ki for SSTR1 (bound)
[7] = same protocol, less than 300 nM, read-out: Ki for SSTR4 (bound)
[8] = membranes from CHO cells stably transfected with human SSTR4, 125I-LTT-sst-28, Cheng-Prusoff, read-out: Ki (SSTR4)

T2 sequence (P31391 whole entry): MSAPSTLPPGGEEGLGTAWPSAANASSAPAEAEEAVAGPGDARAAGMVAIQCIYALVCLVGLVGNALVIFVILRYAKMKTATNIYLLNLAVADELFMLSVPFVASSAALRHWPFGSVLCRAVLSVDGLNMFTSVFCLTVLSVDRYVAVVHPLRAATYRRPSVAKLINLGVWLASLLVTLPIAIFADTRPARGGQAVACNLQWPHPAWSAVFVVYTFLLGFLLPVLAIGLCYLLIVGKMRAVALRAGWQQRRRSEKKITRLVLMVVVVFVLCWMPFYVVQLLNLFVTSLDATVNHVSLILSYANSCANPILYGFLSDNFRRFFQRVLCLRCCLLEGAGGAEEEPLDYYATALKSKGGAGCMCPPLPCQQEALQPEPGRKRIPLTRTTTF
T1 sequence (P30872 whole entry): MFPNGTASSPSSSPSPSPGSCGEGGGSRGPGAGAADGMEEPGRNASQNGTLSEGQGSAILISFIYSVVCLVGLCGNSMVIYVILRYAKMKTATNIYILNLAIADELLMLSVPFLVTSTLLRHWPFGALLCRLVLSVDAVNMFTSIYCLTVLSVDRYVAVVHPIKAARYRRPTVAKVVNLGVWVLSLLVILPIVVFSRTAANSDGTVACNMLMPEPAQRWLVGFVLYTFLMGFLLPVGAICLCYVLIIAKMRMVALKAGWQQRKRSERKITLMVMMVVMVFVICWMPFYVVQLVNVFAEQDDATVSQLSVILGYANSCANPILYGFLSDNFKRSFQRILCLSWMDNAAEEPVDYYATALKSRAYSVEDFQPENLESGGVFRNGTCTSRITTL
T3 sequence (P30874 whole entry): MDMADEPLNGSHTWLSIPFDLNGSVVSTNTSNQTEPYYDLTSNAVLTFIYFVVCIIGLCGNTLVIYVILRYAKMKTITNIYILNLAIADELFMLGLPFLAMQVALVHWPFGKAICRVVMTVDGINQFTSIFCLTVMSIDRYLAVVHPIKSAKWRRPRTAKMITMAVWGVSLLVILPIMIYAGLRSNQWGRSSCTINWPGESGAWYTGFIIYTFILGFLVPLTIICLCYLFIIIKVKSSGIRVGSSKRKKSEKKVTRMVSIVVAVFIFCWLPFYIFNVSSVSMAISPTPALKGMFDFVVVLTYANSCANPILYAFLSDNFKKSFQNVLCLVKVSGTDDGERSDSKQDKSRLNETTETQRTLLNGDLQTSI
T4 sequence (P35346 whole entry): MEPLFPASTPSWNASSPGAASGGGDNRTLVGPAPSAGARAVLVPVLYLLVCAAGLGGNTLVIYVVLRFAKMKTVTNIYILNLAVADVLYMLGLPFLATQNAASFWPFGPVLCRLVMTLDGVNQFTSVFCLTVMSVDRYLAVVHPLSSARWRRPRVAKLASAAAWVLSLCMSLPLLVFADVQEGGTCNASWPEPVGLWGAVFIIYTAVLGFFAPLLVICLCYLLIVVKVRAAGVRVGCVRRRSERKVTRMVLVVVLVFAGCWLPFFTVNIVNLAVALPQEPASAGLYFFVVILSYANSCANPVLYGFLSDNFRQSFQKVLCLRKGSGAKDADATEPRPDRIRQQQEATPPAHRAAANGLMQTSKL
T5 sequence (P32745 whole entry): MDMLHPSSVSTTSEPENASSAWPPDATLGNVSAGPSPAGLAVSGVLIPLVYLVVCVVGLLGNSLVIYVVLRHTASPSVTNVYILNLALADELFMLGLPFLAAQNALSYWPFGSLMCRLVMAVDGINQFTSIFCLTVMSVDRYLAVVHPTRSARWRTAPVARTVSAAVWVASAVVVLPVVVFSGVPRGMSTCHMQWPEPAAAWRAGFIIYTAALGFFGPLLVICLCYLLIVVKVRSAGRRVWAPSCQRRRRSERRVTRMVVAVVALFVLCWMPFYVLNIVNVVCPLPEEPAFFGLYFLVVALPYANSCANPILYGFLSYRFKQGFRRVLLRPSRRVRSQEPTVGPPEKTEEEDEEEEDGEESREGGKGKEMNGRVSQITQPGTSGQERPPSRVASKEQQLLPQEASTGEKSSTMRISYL

Compound	Ki [1, 6] [nM]	Ki [2, 7] [nM]	also measured
CNCC[C@H](NS(=O)(=O)c1ccc(C)c2ccccc12)C(=O)NCCc1cccc(Cl)c1 [Compound 23, N-(2-(3-chlorophenyl)ethyl)-4-N′-methylamino-(S)-2-(N″-(4-methyl-1-naphthalenesulfonyl)amino)-butanamide]	< 300	–	–
CCc1cc(Br)ccc1S(=O)(=O)NC(CCN)C(=O)NC(Cc1ccccc1)C(N)=O [Compound 14, 4-amino-(S)-2-N-(4-bromo-2-ethylbenzenesulfonyl)-amino-N′-((S)-1-carbamoyl-2-phenylethyl)butanamide]	–	< 300	–
Cc1ccc(S(=O)(=O)N[C@@H](CCCN)C(=O)NC2(C(N)=O)Cc3ccccc3C2)c2ccccc12 [Compound 19, 5-amino-N-(2-(2-carbamoyl)indanyl)-(S)-2-(N′-(4-methyl-1-naphthalenesulfonyl)amino)pentanamide]	–	< 300	–
CCc1ccc(S(=O)(=O)N[C@@H](CCN)C(=O)N[C@@H](Cc2ccccc2)C(N)=O)c2ccccc12 [Compound 8, 4-amino-N-((S)-1-carbamoyl-2-phenylethyl)-(S)-2-(N′-(4-ethyl-1-naphthalenesulfonyl)amino)butanamide]	–	< 300	–
N=C(N)NCCC[C@H](NS(=O)(=O)c1cccc(-c2ccccc2)c1)C(=O)N[C@@H](Cc1ccccc1)C(N)=O [Compound 16, N-((S)-1-carbamoyl-2-phenylethyl)-5-guanidino-(S)-2-(N′-(3-phenylbenzenesulfonyl)amino)pentanamide]	–	< 300	–
Cc1ccc(S(=O)(=O)N[C@@H](CCN)C(=O)N[C@@H](Cc2ccccc2)C(N)=O)c2ccccc12 [Compound 2, 4-amino-N-(S)-1-carbamoyl-2-phenylethyl-(S)-2-(N′-(4-methyl-1-naphthalenesulfonyl)amino)butanamide]	–	–	Ki [2, 8]: 1.2 ± 0.4 nM; Ki [3]: > 5000 nM
CCCCOc1ccc(S(=O)(=O)NC(CCCNC(=N)N)C(=O)NC(Cc2ccccc2)C(N)=O)cc1 [Compound 12, (S)-2-N-(4-butoxybenzenesulfonyl)amino-N′-((S)-1-carbamoyl-2-phenylethyl)-5-guanidinopentanamide]	< 300	–	–
Cc1ccc(S(=O)(=O)NC(CCN)C(=O)NC2CCCc3ccccc32)c2ccccc12 [Compound 18, 4-amino-(S)-2-N-(4-methyl-1-naphthalenesulfonyl)-amino-N′-(1,2,3,4-tetrahydro-1-naphthyl)butanamide]	< 300	–	–
Cc1ccc(S(=O)(=O)NC(CCCN)C(=O)NC2(C(N)=O)CCc3ccccc3C2)c2ccccc12 [Compound 22, 5-amino-N-(2-(2-carbamoyl)-1,2,3,4-tetrahydronaphthyl)-(S)-2-(N′-(4-methyl-1-naphthalenesulfonyl)amino)-pentanamide]	< 300	–	–
NCC[C@H](NS(=O)(=O)c1cccc2ccccc12)C(=O)N[C@@H](Cc1ccccc1)C(N)=O [Compound 10, 4-amino-N-((S)-1-carbamoyl-2-phenylethyl)-(S)-2-(N′-(1-naphthalenesulfonyl)amino)butanamide]	–	< 300	–
Cc1ccc(S(=O)(=O)NC(CCCNC(C)C)C(=O)NC2CCCc3ccccc32)c2ccccc12 [Compound 17, 5-N-isopropylamino-(S)-2-N′-(4-methyl-1-naphthalene-sulfonyl)amino-N″-(1,2,3,4-tetrahydro-1-naphthyl)-pentanamide]	–	–	Ki [4]: > 10000 nM; Ki [2, 8]: 84 ± 23 nM; Ki [3]: > 10000 nM; Ki ([1]; membranes from CHO cells stably transfected with human SSTR1, 125I-LTT-sst-28, Cheng-Prusoff, read-out: Ki (SSTR1)): 1 ± 0.4 nM; Ki [5]: > 2000 nM
Cc1ccc(S(=O)(=O)N[C@@H](CCCNC(=N)N)C(=O)N[C@H](C(N)=O)C(c2ccccc2)c2ccccc2)c2ccccc12 [Compound 6, N-((S)-1-carbamoyl-2,2-diphenylethyl)-5-guanidino-(S)-2-(N′-(4-methyl-1-naphthalenesulfonyl)amino)pentanamide]	< 300	< 300	–
Cc1ccc(S(=O)(=O)N[C@@H](CCCN)C(=O)N[C@@H](Cc2cccc(Cl)c2)C(N)=O)c2ccccc12 [Compound 21, 5-amino-N-((S)-1-carbamoyl-2-(3-chlorophenyl)ethyl)-(S)-2-(N′-(4-methyl-1-naphthalenesulfonyl)amino)-pentanamide]	< 300	–	–
Cc1ccc(S(=O)(=O)N[C@@H](CCN)C(=O)NC2CCCCC2)c2ccccc12 [Compound 1, 4-amino-N-cyclohexyl-(S)-2-(N′-(4-methyl-1-naphthalenesulfonyl)amino)butanamide]	–	< 300	–
Cc1ccc(S(=O)(=O)N[C@@H](CCCN)C(=O)N[C@@H](Cc2ccccc2)C(N)=O)c2ccccc12 [Compound 7, 5-amino-N-((S)-1-carbamoyl-2-phenylethyl)-(S)-2-(N′-(4-methyl-1-naphthalenesulfonyl)amino)pentanamide]	< 300	< 300	–
Cc1ccc(S(=O)(=O)N[C@@H](CCN)C(=O)N[C@H](C(N)=O)C(C)C)c2ccccc12 [Compound 13, 4-amino-N-((S)-1-carbamoyl-2-methylpropyl)-(S)-2-(N′-(4-methyl-1-naphthalenesulfonyl)amino)butanamide]	–	< 300	–
Cc1ccc(S(=O)(=O)N[C@@H](CCNC2CCCCC2)C(=O)NCc2ccccc2)c2ccccc12 [Compound 11, N-benzyl-4-N′-cyclohexylamino-(S)-2-(N″-(4-methyl-1-naphthalenesulfonyl)amino)butanamide]	< 300	–	–
Cc1ccc(S(=O)(=O)N[C@@H](CCN)C(=O)N[C@H](C(N)=O)C(c2ccccc2)c2ccccc2)c2ccccc12 [Compound 9, 4-amino-N-((S)-1-carbamoyl-2,2-diphenylethyl)-(S)-2-(N′-(4-methyl-1-naphthalenesulfonyl)amino)butanamide]	–	< 300	–
Cc1ccc(S(=O)(=O)N[C@@H](CCCNC(=N)N)C(=O)N[C@@H](Cc2ccccc2)C(N)=O)c2ccccc12 [Compound 5, N-((S)-1-carbamoyl-2-phenylethyl)-5-guanidino-(S)-2-(N′-(4-methyl-1-naphthalenesulfonyl)amino)pentanamide]	< 300	< 300	–
N=C(N)NCCC[C@H](NS(=O)(=O)c1ccc2ccccc2c1)C(=O)N[C@@H](Cc1ccccc1)C(N)=O [Compound 15, N-((S)-1-carbamoyl-2-phenylethyl)-5-guanidino-(S)-2-(N′-(2-naphthalenesulfonyl)amino)pentanamide]	< 300	–	–
Cc1ccc(S(=O)(=O)N[C@@H](CCCN)C(=O)NCCc2c[nH]c3ccccc23)c2ccccc12 [Compound 20, 5-amino-N-(2-(1H-indol-3-yl)ethyl)-(S)-2-(N′-(4-methyl-1-naphthalenesulfonyl)amino)pentanamide]	–	< 300	–
Cc1ccc(S(=O)(=O)N[C@@H](CCNC(=N)N)C(=O)NCc2ccccc2)c2ccccc12 [Compound 4, N-benzyl-4-guanidino-(S)-2-(N′-(4-methyl-1-naphthalenesulfonyl)amino)butanamide]	–	< 300	–
Cc1ccc(S(=O)(=O)N[C@@H](CCNC(C)C)C(=O)NCc2ccccc2)c2ccccc12 [Compound 3, N-benzyl-4-(N′-isopropyl)amino-(S)-2-(N″-(4-methyl-1-naphthalenesulfonyl)amino)butanamide]	< 300	< 300	–

— patent US7741362B2, “Somatostatin receptor 1 and/or 4 selective agonists and antagonists” (Siegfried Wurster, priority 2003, dated 2010)
